Measured values from US20150246058A1, “COMPOSITION FOR PREVENTING HAIR LOSS AND ACCELERATING HAIR GROWTH” (RNS CO., LTD., priority 2012, published 2015).

System: 5α-reductase
Assay: 5α-reductase inhibitory efficacy: DHT produced in testosterone-stimulated dermal papilla cells (DHT ELISA)
Format: cell-based
Conditions: 50 nM testosterone, 24 hours, produced DHT relative to control
Experimental: After seeding 1 ml of dermal papilla cells (DPCs) by 5×10^5/ml into each well of a 24-well plate, then incubating the same for 24 hours, each of the reaction products prepared according to procedures described in Examples 1 to 72 was added in amounts of 50 μg/ml, 10 μg/ml and 0 μg/ml, respectively, to individual wells. After 1 hour, the wells were subjected to stimulation using 50 nM testosterone (DMSO dissolved). The supernatant was discarded 24 hours after culturing, to thus obtain DPc pellets. A content of dihydrotestosterone (DHT) (DB52021, Hamburg, Germany) was determined by means of enzyme-linked immune-sorbent assay. DPCs cell pellets were seeded in an amount of 100 μL into each of Dihydrotestosterone (DHT) ELISA microtiter strips coated with rabbit anti-DHT antibody, 25 μL of DHT antiserum was seeded in every well, and subjected to a reaction at 2 to 8° C. for 15 to 20 hours, followed by washing the same three times. Thereafter, 100 μL of DHT-HRP enzyme conjugate was seeded in every well and reacted on a shaker at room temperature for 30 minutes, followed by washing the same three times. Furthermore, 100 μL of substrate was seeded in every well and reacted on a shaker at room temperature for 20 to 30 minutes. Then, the product was treated using 100 μL stop solution, and subjected to measurement of absorbance at 450 nm to express an amount of produced DHT by the absorbance (three times repeated). An amount of produced DHT relative to a control was calculated in terms of an inhibitory rate (%), and results thereof are shown in Table 3 below.

Compound | 5α-reductase inhibitory rate (%) (sample concentration 10 μg/ml) | 5α-reductase inhibitory rate (%) (sample concentration 50 μg/ml)
CCCCCCCCCCCCCCCCCC(=O)O[C@H]1CC[C@@]2(C)C(=CC[C@H]3[C@@H]4CC[C@H]([C@H](C)CC[C@@H](C)C(C)C)[C@@]4(C)CC[C@@H]32)C1 [Compound in Example 45, Campesterol stearate] | 26 | 43
CC(C)[C@@H](C)/C=C/[C@@H](C)[C@H]1CC[C@H]2[C@@H]3CC=C4C[C@@H](O)CC[C@]4(C)[C@H]3CC[C@]12C [Compound in Example 46, brassicasterol] | 8 | 19
C/C=C(\CC[C@@H](C)[C@H]1CC[C@H]2[C@@H]3CC=C4C[C@@H](O)CC[C@]4(C)[C@H]3CC[C@]12C)C(C)C [Compound in Example 48, fucosterol] | 12 | 19
COC1CCC2(C)C(CCC3(C)C2CC=C2C4CC(C)(C)CCC4(C)CCC23C)C1(C)C (stereo not drawn) [Compound in Example 50, O-methyl-β-amyrin] | 16 | 31
CCCCCOC1CCC2(C)C(CCC3(C)C2CC=C2C4CC(C)(C)CCC4(C)CCC23C)C1(C)C (stereo not drawn) [Compound in Example 51, O-pentyl-β-amyrin] | 22 | 38
CCCCCCCCOC1CCC2(C)C(CCC3(C)C2CC=C2C4CC(C)(C)CCC4(C)CCC23C)C1(C)C (stereo not drawn) [Compound in Example 52, O-octyl-β-amyrin] | 28 | 43
CCCCCCCCOC1CCC2(C)C(CCC3(C)C2CC=C2C4C(C)C(C)CCC4(C)CCC23C)C1(C)C (stereo not drawn) [Compound in Example 55, O-octyl-α-amyrin] | 24 | 38
CCCCCCCCOC1CCC2(C)C(=CCC3C2CCC2(C)C(C(C)CCC(CC)C(C)C)CCC32)C1 (stereo not drawn) [Compound in Example 57, O-octyl-β-sitosterol] | 21 | 41
CCCCCCCCCCCCCCCCCCO[C@H]1CC[C@@]2(C)C(=CC[C@H]3[C@@H]4CC[C@H]([C@H](C)CC[C@@H](CC)C(C)C)[C@@]4(C)CC[C@@H]32)C1 [Compound in Example 58, O-octadecyl-β-sitosterol] | 31 | 46
CCCCCCCCOC1CCC2(C)C(CCC3(C)C2CC=C2C4C(C)C(C)CCC4(C(=O)O)CCC23C)C1(C)C (stereo not drawn) [Compound in Example 59, O-octyl-ursolic acid] | 22 | 41
CCCCCCCCCCCCCCCCCCOC1CCC2(C)C(CCC3(C)C2CC=C2C4C(C)C(C)CCC4(C(=O)O)CCC23C)C1(C)C (stereo not drawn) [Compound in Example 60, O-octadecyl-ursolic acid] | 35 | 49
CCCCCCCCOC1CCC2(C)C(CCC3(C)C2CC=C2C4CC(C)(C)CCC4(C(=O)O)CCC23C)C1(C)C (stereo not drawn) [Compound in Example 61, O-octyl-oleanolic acid] | 22 | 37
CCCCCCCCOC1CCC2(C)C(CCC3(C)C2CC=C2C4CC(C)(C)CCC4(C)CCC23C)C1(C)C(=O)O (stereo not drawn) [Compound in Example 63, O-octyl-α-boswellic acid] | 21 | 34
C=C(C)C1CCC2(C(=O)O)CCC3(C)C(CCC4C5(C)CCC(OCCCCCCCC)C(C)(C)C5CCC43C)C12 (stereo not drawn) [Compound in Example 65, O-octyl-betulinic acid] | 19 | 31
CCCCCCCCOC1CCC2(C)C(CCC3(C)C2C(=O)C=C2C4CC(C)(C(=O)O)CCC4(C)CCC23C)C1(C)C (stereo not drawn) [Compound in Example 66, O-octyl-glycyrrhetinic acid] | 33 | 51
CCCCCCCCOC1CCC2(C)C(=CCC3C2CCC2(C)C(C(C)CCC=C(C)C)CCC32)C1 (stereo not drawn) [Compound in Example 67, O-octyl-desmosterol] | 24 | 41
CCCCCCCCO[C@H]1CC[C@@]2(C)C(=CC[C@H]3[C@@H]4CC[C@H]([C@H](C)CCCC(C)C)[C@@]4(C)CC[C@@H]32)C1 [Compound in Example 68, O-octyl-cholesterol] | 35 | 45
CCCCCCCCOC1CCC2(C)C(=CCC3C2CCC2(C)C(C(C)C=CC(CC)C(C)C)CCC32)C1 (stereo not drawn) [Compound in Example 69, O-octyl-stigmasterol] | 19 | 33
CCCCCCCCOC1CCC2(C)C(=CCC3C2CCC2(C)C(C(C)CCC(C)C(C)C)CCC32)C1 (stereo not drawn) [Compound in Example 70, O-octyl-campesterol] | 28 | 51
CCCCCCCCOC1CCC2(C)C(=CCC3C2CCC2(C)C(C(C)C=CC(C)C(C)C)CCC32)C1 (stereo not drawn) [Compound in Example 71, O-octyl-brassicasterol] | 29 | 38

Compound | 5α-reductase inhibitory rate (%) (sample concentration 10 μg/ml) | 5α-reductase inhibitory rate (%) (sample concentration 50 μg/ml)
C/C=C(\CC[C@@H](C)[C@H]1CC[C@H]2[C@@H]3CC=C4C[C@@H](OCCCCCCCC)CC[C@]4(C)[C@H]3CC[C@]12C)C(C)C [Compound in Example 72, O-octyl-fucosterol] | 19 | 35
O-dodecyl-β-amyrin [Compound in Example 53] | 31 | 41
O-octadecyl-oleanolic acid [Compound in Example 62] | 29 | 51
O-octadecyl-α-amyrin [Compound in Example 56] | 38 | 49
O-octadecyl-β-amyrin [Compound in Example 54] | 35 | 48
O-octyl-β-boswellic acid [Compound in Example 64] | 35 | 51
betulinic acid stearate [Compound in Example 33] | 31 | 51
brassicasterol stearate [Compound in Example 47] | 24 | 39
desmosterol stearate [Compound in Example 39] | 26 | 41
dihydroandrosterone stearate [Compound in Example 37] | 24 | 38
fucosterol stearate [Compound in Example 49] | 25 | 41
glycyrrhetinic acid stearate [Compound in Example 35] | 24 | 39
oleanolic acid acetate [Compound in Example 23] | 11 | 23
oleanolic acid stearate [Compound in Example 25] | 35 | 41
ursolic acid acetate [Compound in Example 19] | 22 | 31
ursolic acid stearate [Compound in Example 21] | 35 | 51
α-amyrin stearate [Compound in Example 13] | 45 | 57
α-boswellic acid stearate [Compound in Example 28] | 37 | 51
β-amyrin behenate [Compound in Example 9] | 38 | 59
